Measured values taken from patent US9029389B2 (Institut Pasteur Korea, priority 2011, dated 2015).

Experiments:
[1] = target: T1, Human 5-lipoxygenase (Homo sapiens, UniProt P09917); experiment: Activity of compounds against 5-LO enzyme (LTB4 measurement and/or fluorescence method); assay type: biochemical; conditions: for inhibition at 10 µM: 5-LO, single concentration of 10 uM in duplicate; for IC50: 6 or 11 point dose response in duplicate
T1 construct: purchased Cayman 60402; host or cells: insect cells
T1 sequence (P09917 1-674): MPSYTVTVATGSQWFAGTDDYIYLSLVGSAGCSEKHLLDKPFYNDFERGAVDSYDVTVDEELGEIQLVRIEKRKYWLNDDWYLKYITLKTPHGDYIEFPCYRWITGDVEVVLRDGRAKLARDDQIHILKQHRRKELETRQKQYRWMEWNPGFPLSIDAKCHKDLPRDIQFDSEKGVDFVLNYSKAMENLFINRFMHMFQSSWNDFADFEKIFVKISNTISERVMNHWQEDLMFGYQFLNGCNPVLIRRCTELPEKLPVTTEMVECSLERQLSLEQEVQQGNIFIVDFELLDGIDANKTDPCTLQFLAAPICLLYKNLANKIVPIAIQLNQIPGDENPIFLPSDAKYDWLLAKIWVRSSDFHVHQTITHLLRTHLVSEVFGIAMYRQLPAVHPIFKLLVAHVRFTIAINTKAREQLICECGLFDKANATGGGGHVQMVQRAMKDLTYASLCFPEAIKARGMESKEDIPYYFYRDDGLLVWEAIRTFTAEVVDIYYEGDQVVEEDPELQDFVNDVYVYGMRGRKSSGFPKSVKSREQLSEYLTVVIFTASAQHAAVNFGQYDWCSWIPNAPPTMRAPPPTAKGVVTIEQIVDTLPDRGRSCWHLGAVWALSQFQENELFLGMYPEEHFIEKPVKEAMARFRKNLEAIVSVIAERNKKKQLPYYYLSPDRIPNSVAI
Procedure, shortened: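 Two read-outs: LTB4 measured by EIA and/or LC/MS/MS with LTB4-d4 standard after 15 min RT compound preincubation with insect-cell 5-LO and a 5 min 37 °C reaction on 3 uM arachidonic acid (0.1 mM ATP, pH 7.4). The room-temperature fluorescence format used 20 uM H2DCFDA, 100 uM ATP, 3 uM arachidonic acid, 5 min; IC50 from 6/11-point curves.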

[2] = test system: production of LTB4 in human PBMC (peripheral blood mononuclear cells); experiment: Production of LTB4 in PBMC (LTB4 secretion assay); assay type: cell-based; conditions: 12 point dose response in duplicate
Experimental: Frozen human PBMC (peripheral blood mononuclear cells, AllCells, Cat#[…]) was diluted 50 times with fresh culture media (RPMI 1640 supplemented with 10% FBS, 2 mM L-alanyl-L-glutamine). Cells were harvested by centrifugation and resuspended in fresh culture media to a concentration of 5×10^6 cells per milliliter. 140 ul of cell suspension was then liquated to each well (96-well plate). After incubation at 37° C. for 1 hr under 5% CO2, 10 ul of serially diluted compounds (in 100% DMSO) and 10 ul of arachidonic acid to a final concentration of 30 uM were added and further incubated for 1 hr at 37° C. for 1 hr under 5% CO2. Then, inducers, such as A23187 (Ionophor), sodium arsenite, sodium chloride and/or Anti-DNP IgE, were added in a volume of 40 ul and cells were incubated at 37° C. for […]. Culture supernatant was harvested by centrifugation and LTB4 levels were quantified using LTB4 EIA kit (Cayman, Cat#520111). Six of the 378 compounds tested against the 5-LO enzyme in vitro were also selected to be tested for their activity in a human cellular assay. Compounds were tested in a 12 point dose response in duplicate.

With `CCc1nc2ccc(Cl)cn2c1CNc1ccc(N2CCN(c3ccc(F)cc3)CC2)cc1` [compound 311, N-((6-Chloro-2-ethylimidazo[1,2-a]pyridin-3-yl)methyl)-4-(4-(4-fluorophenyl)piperazin-1-yl)aniline] the inhibition at 10 µM [1] was > 69%, the IC50 [1] was < 1000 nM and the EC50 [2] was 1000 to 20000 nM. For the same compound, the melting point was 191 to 192 °C.
For `CCc1nc2cc(Cl)ccn2c1C(=O)NCc1ccc2oc(-c3ccc(OC(F)(F)F)cc3)nc2c1` [compound 187, 7-Chloro-2-ethyl-N-((2-(4-(trifluoromethoxy)phenyl)benzo[d]oxazol-5-yl)methyl)imidazo[1,2-a]pyridine-3-carboxamide], the inhibition at 10 µM [1] was < 40% and the EC50 [2] was 1000 to 20000 nM.
With `CCc1nc2ccc(Cl)cn2c1C(=O)N1CCC(OCc2ccc(OC(F)(F)F)cc2)CC1` [compound 313, (6-Chloro-2-ethylimidazo[1,2-a]pyridin-3-yl)(4-(4-(trifluoromethoxy)benzyloxy)piperidin-1-yl)methanone] the inhibition at 10 µM [1] was > 69%, the IC50 [1] was 1000 to 20000 nM and the EC50 [2] was < 1000 nM.
In the case of `CCc1nc2ccc(Cl)cn2c1C(=O)N(C)Cc1ccc(N2CCN(c3ccc(F)cc3)CC2)cc1` [compound 314, 6-Chloro-2-ethyl-N-(4-(4-(4-fluorophenyl)piperazin-1-yl)benzyl)-N-methylimidazo[1,2-a]pyridine-3-carboxamide], the inhibition at 10 µM [1] is reported as > 69%, the IC50 [1] is reported as 1000 to 20000 nM and the EC50 [2] is reported as < 1000 nM. It also gave a melting point of 148 to 149 °C.
For `CCc1nc2cc([N+](=O)[O-])ccn2c1C(=O)NCc1ccc(N2CCC(Oc3ccc(OC(F)(F)F)cc3)CC2)cc1` [compound 312, 2-Ethyl-7-nitro-N-(4-(4-(4-(trifluoromethoxy)phenoxy)piperidin-1-yl)benzyl)imidazo[1,2-a]pyridine-3-carboxamide], the inhibition at 10 µM [1] was > 69%, the IC50 [1] was < 1000 nM and the EC50 [2] was < 1000 nM.
With `CCc1nc2c(F)cccn2c1C(=O)NCc1ccc(N2CCN(c3ccc(F)cc3)CC2)cc1` [compound 223, 2-Ethyl-8-fluoro-N-(4-(4-(4-fluorophenyl)piperazin-1-yl)benzyl)imidazo[1,2-a]pyridine-3-carboxamide] the inhibition at 10 µM [1] was > 69%, the IC50 [1] was 1000 to 20000 nM and the melting point was 204.1 °C.
In the case of `CCc1nc2ccc(Cl)cn2c1C(=O)NCc1cccc(CC(=O)Nc2ccc(F)cc2)c1` [compound 355, 6-chloro-2-ethyl-N-(3-(2-((4-fluorophenyl)amino)-2-oxoethyl)benzyl)imidazo[1,2-a]pyridine-3-carboxamide], the inhibition at 10 µM [1] is reported as < 40% and the melting point is reported as > 198.8 °C (dec.).
For `CCc1nc2ccc(Cl)cn2c1C(=O)NCc1ccc(CC2CCOCC2)cc1` [compound 358, 6-chloro-2-ethyl-N-(4-((tetrahydro-2H-pyran-4-yl)methyl)benzyl)imidazo[1,2-a]pyridine-3-carboxamide], the inhibition at 10 µM [1] was < 40% and the melting point was 132.2 to 133 °C.
With `CCc1nc2cc(N3CCN(c4ccccc4)CC3)ccn2c1C(=O)NCc1ccc(C(F)(F)F)cc1` [compound 246, 2-Ethyl-7-(4-phenylpiperazin-1-yl)-N-(4-(trifluoromethyl)benzyl)imidazo[1,2-a]pyridine-3-carboxamide] the inhibition at 10 µM [1] was < 40% and the melting point was 235.2 °C.
In the case of `CCc1nc2ccc(Cl)cn2c1CNc1ccc(-c2ccc(OC(F)(F)F)cc2)cc1` [compound 383, N-((6-chloro-2-ethylimidazo[1,2-a]pyridin-3-yl)methyl)-4′-(trifluoromethoxy)biphenyl-4-amine], the IC50 [1] is reported as > 20000 nM and the melting point is reported as 102 °C.
With `CCc1nc2ccc(Cl)cn2c1COc1ccc(N2CCN(c3ccc(F)cc3)CC2)cc1` [compound 399, 6-chloro-2-ethyl-3-((4-(4-(4-fluorophenyl)piperazin-1-yl)phenoxy)methyl)imidazo[1,2-a]pyridine] the IC50 [1] was < 1000 nM and the melting point was 161.3 °C.
For `CCc1nc2cc(Cl)ccn2c1C(=O)NCc1ccc(NCc2ccc(OC(F)(F)F)cc2)cc1` [compound 215, 7-Chloro-2-ethyl-N-(4-((4-(trifluoromethoxy)benzyl)amino)benzyl)imidazo[1,2-a]pyridine-3-carboxamide], the inhibition at 10 µM [1] was 40 to 69% and the melting point was 169.6 °C.
For `CCc1nc2ccc(F)cn2c1C(=O)NCc1ccc(N2CCC(c3ccc(OC(F)(F)F)cc3)CC2)cc1` [compound 372, 2-ethyl-6-fluoro-N-(4-(4-(4-(trifluoromethoxy)phenyl)piperidin-1-yl)benzyl)imidazo[1,2-a]pyridine-3-carboxamide], the inhibition at 10 µM [1] was < 40% and the melting point was > 167.9 °C (dec.).
For `CCc1nc2cc(Cl)ccn2c1C(=O)NCc1ccc(N2CCOCC2)cc1` [compound 93, 7-Chloro-2-ethyl-N-(4-morpholinobenzyl)imidazo[1,2-a]pyridine-3-carboxamide], the inhibition at 10 µM [1] was < 40% and the melting point was 195 °C.
Work on `CCc1nc2ccc(Cl)cn2c1C(=O)NCc1ccc(N2CCC(c3ccccc3)CC2)cc1` [compound 210, 6-Chloro-2-ethyl-N-(4-(4-phenylpiperidin-1-yl)benzyl)imidazo[1,2-a]pyridine-3-carboxamide] yielded an inhibition at 10 µM [1] of 40 to 69% and a melting point of 138.2 °C.
In the case of `CCc1nc2ccc(Cl)cn2c1C(=O)NCc1cccc(N(C)Cc2ccc(OC(F)(F)F)cc2)c1` [compound 352, 6-chloro-2-ethyl-N-(3-(methyl(4-(trifluoromethoxy)benz)amino)benzyl)imidazo[1,2-a]pyridine-3-carboxamide], the inhibition at 10 µM [1] is reported as < 40% and the melting point is reported as > 142.3 °C (dec.).
For `CCc1nc2cc(C)ccn2c1C(=O)NCc1ccc(Oc2ccc(OC(F)(F)F)cc2)cc1` [compound 219, 2-Ethyl-7-methyl-N-(4-(4-(trifluoromethoxy)phenoxy)benzyl)imidazo[1,2-a]pyridine-3-carboxamide], the inhibition at 10 µM [1] was > 69%, the IC50 [1] was < 1000 nM and the melting point was 133.6 °C.
`CCc1nc2ccc(Cl)cn2c1C(=O)OCc1ccc(Oc2ccccc2)cc1` [compound 163, 4-Phenoxybenzyl 6-chloro-2-ethylimidazo[1,2-a]pyridine-3-carboxylate] showed an inhibition at 10 µM [1] of 40 to 69% and a melting point of 123.3 to 123.8 °C.
Work on `CCc1nc2cc(Cl)ccn2c1C(=O)NCc1ccc(N2CCN(c3ccc(OC(F)(F)F)cc3)CC2)cc1` [compound 159, 7-Chloro-2-ethyl-N-(4-(4-(4-(trifluoromethoxy)phenyl)piperazin-1-yl)benzyl)imidazo[1,2-a]pyridine-3-carboxamide] yielded an inhibition at 10 µM [1] of 40 to 69% and a melting point of 216.3 to 217 °C.
For `CCc1nc2ccc(Cl)cn2c1C(=O)NCc1ccc(C#N)cc1` [compound 134, 6-Chloro-N-(4-cyanobenzyl)-2-ethylimidazo[1,2-a]pyridine-3-carboxamide], the inhibition at 10 µM [1] was < 40% and the melting point was 223 to 224 °C.
Compound `C=C1CCN(c2ccc(CNC(=O)c3c(CC)nc4cc(Cl)ccn34)cc2)CC1` [compound 218, 7-Chloro-2-ethyl-N-(4-(4-methylenepiperidin-1-yl)benzyl)imidazo[1,2-a]pyridine-3-carboxamide] has an inhibition at 10 µM [1] of 40 to 69% and a melting point of 168.3 °C.
`CCc1nc2ccc(Cl)cn2c1C(=O)NCc1ccc(Oc2ccc(Cl)cc2)cc1` [compound 160, 6-Chloro-N-(4-(4-chlorophenoxy)benzyl)-2-ethylimidazo[1,2-a]pyridine-3-carboxamide] gave an inhibition at 10 µM [1] of 40 to 69% and a melting point of 159 to 160.7 °C.
